Reference: patent US7996156B2, “Methods for predicting properties of molecules” (priority 2002, dated 2011)
Read-outs that look alike come from different tables or passages of the source.

Key:
[1] = biological target: T1, aryl hydrocarbon receptor (AhR) (Rattus norvegicus, UniProt P41738); settings: cited from earlier work; for Experimental Log EC50: rodent hepatic cytosol
T1 construct: rodent hepatic cytosol as a source of the AhR; from tissue; host or cells: rodent hepatic cytosol
T1 sequence (P41738 10-853): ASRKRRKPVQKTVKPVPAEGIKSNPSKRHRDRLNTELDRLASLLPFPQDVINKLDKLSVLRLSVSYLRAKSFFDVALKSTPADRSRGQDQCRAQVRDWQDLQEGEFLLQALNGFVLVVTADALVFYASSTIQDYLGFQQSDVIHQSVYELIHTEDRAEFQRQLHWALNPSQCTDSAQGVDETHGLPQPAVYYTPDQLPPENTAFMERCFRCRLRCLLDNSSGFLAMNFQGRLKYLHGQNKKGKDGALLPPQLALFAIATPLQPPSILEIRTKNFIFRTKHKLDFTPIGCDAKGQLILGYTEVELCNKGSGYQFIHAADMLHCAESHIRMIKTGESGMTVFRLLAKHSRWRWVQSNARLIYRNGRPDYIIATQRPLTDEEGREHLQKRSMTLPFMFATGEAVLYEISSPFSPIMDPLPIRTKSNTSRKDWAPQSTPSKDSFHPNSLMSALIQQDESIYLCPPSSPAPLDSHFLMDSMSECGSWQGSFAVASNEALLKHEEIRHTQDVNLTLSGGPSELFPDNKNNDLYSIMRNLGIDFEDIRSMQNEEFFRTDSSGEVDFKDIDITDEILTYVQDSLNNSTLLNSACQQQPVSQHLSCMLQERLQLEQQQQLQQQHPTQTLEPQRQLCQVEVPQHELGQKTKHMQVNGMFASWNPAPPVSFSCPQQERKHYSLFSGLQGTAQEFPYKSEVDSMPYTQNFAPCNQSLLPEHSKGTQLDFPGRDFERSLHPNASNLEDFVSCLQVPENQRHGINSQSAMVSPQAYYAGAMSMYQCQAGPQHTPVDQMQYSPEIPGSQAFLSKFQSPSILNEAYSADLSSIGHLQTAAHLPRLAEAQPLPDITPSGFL

[2] = biological target: T2, estrogen receptor (Rattus norvegicus, UniProt P06211); experiment: Competitive ER binding assay with [3H]E2 in rat uterine cytosol (NCTR)
T2 construct: in rat uterine cytosol, which was obtained from ovariectomized uteri of Sprague-Dawley rats; from tissue; host or cells: uterine cytosol of ovariectomized Sprague-Dawley rats
T2 sequence (P06211 1-600): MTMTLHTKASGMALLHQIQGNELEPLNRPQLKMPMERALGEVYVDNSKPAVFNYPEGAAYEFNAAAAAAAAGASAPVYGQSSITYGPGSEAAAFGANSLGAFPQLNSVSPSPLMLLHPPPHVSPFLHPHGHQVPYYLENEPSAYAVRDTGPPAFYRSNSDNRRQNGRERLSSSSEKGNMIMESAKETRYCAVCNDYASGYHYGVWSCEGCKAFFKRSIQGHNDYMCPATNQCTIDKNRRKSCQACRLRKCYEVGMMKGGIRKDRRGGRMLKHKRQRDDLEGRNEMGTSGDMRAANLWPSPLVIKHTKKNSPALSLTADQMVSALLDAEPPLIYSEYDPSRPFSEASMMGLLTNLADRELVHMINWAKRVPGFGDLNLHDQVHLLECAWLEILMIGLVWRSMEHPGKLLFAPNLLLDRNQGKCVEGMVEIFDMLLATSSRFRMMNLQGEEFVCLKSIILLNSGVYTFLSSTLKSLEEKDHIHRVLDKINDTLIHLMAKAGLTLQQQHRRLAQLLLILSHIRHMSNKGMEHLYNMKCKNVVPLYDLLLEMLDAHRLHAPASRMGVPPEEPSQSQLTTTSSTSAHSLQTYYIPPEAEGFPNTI
From the text: The log relative binding activity (RBA) data for these 130 structurally diverse compounds was used to train the CoSCoSA models. The data was produced at NCTR using a competitive ER binding assay with radiolabeled estradiol ([^3H]E2) in rat uterine cytosol, which was obtained from ovariectomized uteri of Sprague-Dawley rats. […] For each of the 130 compounds, the ^13C 2D ^13C—^13C COSY NMR experiment was simulated using the ACD Labs CNMR version 5.0 2D predictor software. The COSY NMR spectra could be saved as two tables per compound.

[3] = log scale, competitive binding, [3H]-2,3,7,8-tetrachlorodioxin, previously reported training data
[4] = previously reported competitive in vitro AhR binding, [3H]-2,3,7,8-tetrachlorodioxin radioligand, values are log EC50
[5] = relative binding affinity vs 17-β-estradiol (RBA 100), rat uterine cytosol, 130 compound training set

Molecule	Experimental Log EC50 [1, 3]	Experimental Log EC50 [1, 4]	other results
Clc1ccc(-c2ccc(Cl)c(Cl)c2Cl)cc1Cl [2′,3′4,4′,5-pentaCl-biphenyl]	−5.85	−5.85	–
Clc1cc(Cl)c2oc3cc(Cl)c(Cl)cc3c2c1 [2,3,6,8-tetraCldibenzofuran]	−7.66	−7.66	–
Clc1cc2oc3c(Cl)c(Cl)c(Cl)c(Cl)c3c2cc1Cl [1,2,3,4,7,8-hexaCl-dibenzofuran]	−7.64	−7.64	–
Clc1c(Cl)c(Cl)c2c(c1Cl)Oc1c(Cl)c(Cl)c(Cl)c(Cl)c1O2 [octaCl-dibenzodioxin]	−6.00	−6.00	–
Clc1ccc(-c2cc(Cl)c(Cl)c(Cl)c2Cl)cc1Cl [2,3,3′,4,4′,5-hexaCl-biphenyl]	−6.30	−6.30	–
Clc1ccc2c(c1)oc1cc(Cl)c(Cl)c(Cl)c12 [1,2,3,7-tetraCl-dibenzofuran]	−7.96	−7.96	–
Clc1cc2oc3c(Cl)c(Cl)c(Cl)cc3c2cc1Cl [2,3,4,7,8-pentaCl-dibenzofuran]	−8.82	−8.82	–
Clc1cc(Cl)c(-c2cc(Cl)c(Cl)c(Cl)c2)cc1Cl [2,3′,4,4′,5,5′-hexaCl-biphenyl]	−5.80	−5.80	–
Clc1ccc2oc3c(Cl)cc(Cl)c(Cl)c3c2c1 [1,2,4,8-tetraCl-dibenzofuran]	−6.00	−6.00	–
Clc1cc2c(oc3c(Cl)c(Cl)c(Cl)cc32)c(Cl)c1Cl [2,3,4,6,7,8-hexaCl-dibenzofuran]	−8.33	−8.33	–
Clc1cc(Cl)c2c(c1Cl)Oc1ccccc1O2 [1,2,4-triCl-dibenzodioxin]	−5.88	−5.88	–
Clc1cc2c(oc3c(Cl)cc(Cl)c(Cl)c32)c(Cl)c1Cl [1,2,4,6,7,8-hexaCl-dibenzofuran]	−6.08	−6.08	–
Clc1cc2oc3c(Cl)c(Cl)cc(Cl)c3c2cc1Cl [1,3,4,7,8-pentaCl-dibenzofuran]	−7.70	−7.70	–
Clc1cc2c(cc1Cl)Oc1c(Cl)cccc1O2 [2,3,6-triCl-dibenzodioxin]	−7.66	−7.66	–
Clc1cc(Cl)c2c(c1)oc1c(Cl)cc(Cl)c(Cl)c12 [1,2,4,7,9-pentaCl-dibenzofuran]	−5.70	−5.70	–
Clc1cc2c(cc1Cl)Oc1c(Cl)c(Cl)cc(Cl)c1O2 [1,2,4,7,8-pentaCl-dibenzodioxin]	−6.96	−6.96	–
Clc1c(Cl)c(Cl)c2c(c1Cl)Oc1ccccc1O2 [1,2,3,4-tetraCldibenzodioxin]	−6.88	−6.88	–
Clc1ccc(-c2cc(Cl)c(Cl)c(Cl)c2Cl)cc1 [2,3,4,4′,5-pentaCl-biphenyl]	−6.38	−6.38	–
Clc1ccc(-c2ccc(Cl)c(Cl)c2Cl)cc1Cl [2,3,3′,4,4′-pentaCl-biphenyl]	−6.15	−6.15	–
Clc1ccc(-c2ccc(Cl)c(Cl)c2)cc1Cl [3,3′,4,4′-tetraCl-biphenyl]	−7.37	−7.37	–
Clc1ccc2c(c1)Oc1cc(Cl)c(Cl)cc1O2 [2,3,7-triCl-dibenzodioxin]	−8.15	−8.15	–
Clc1cc(Cl)c2c(c1)oc1c(Cl)c(Cl)c(Cl)cc12 [2,3,4,7,9-pentaCl-dibenzofuran]	−7.70	−7.70	–
Clc1cc(Cl)c2c(c1)oc1cc(Cl)c(Cl)c(Cl)c12 [1,2,3,7,9-pentaCl-dibenzofuran]	−7.40	−7.40	–
Clc1ccc(-c2cc(Cl)c(Cl)cc2Cl)cc1Cl [2,3′,4,4′,5-pentaCl-biphenyl]	−6.04	−6.04	–
Clc1cc2oc3cc(Cl)c(Cl)c(Cl)c3c2cc1Cl [1,2,3,7,8-pentaCl-dibenzofuran]	−8.12	−8.12	–

Molecule	Experimental Log EC50 [1, 3]	Experimental Log EC50 [1, 4]	other results
Clc1cc2c(cc1Cl)Oc1c(ccc(Cl)c1Cl)O2 [2,3,6,7-tetraCl-dibenzodioxin]	−7.79	−7.79	–
Clc1ccc2c(c1)Oc1cc(Cl)ccc1O2 [2,8-diCl-dibenzodioxin]	−6.49	−6.49	–
Clc1cc2oc3cc(Cl)c(Cl)cc3c2cc1Cl [2,3,7,8-tetraCl-dibenzofuran]	−8.60	−8.60	binding to the AhR (in words) [1]: strong binder
Clc1ccc(-c2ccc(Cl)c(Cl)c2Cl)cc1 [2,3,4,4′-tetraCl-biphenyl]	−5.55	−5.55	–
Clc1cc2c(oc3c(Cl)cccc32)c(Cl)c1Cl [2,3,4,6-tetraCl-dibenzofuran]	−7.46	−7.46	–
4-ethyl-7-OH-(p-meoxyphenol)-dihydro-1-benzopyran-2-one	–	–	Exp. Log(RBA) [2, 5]: −0.05
Oc1ccc(-c2ccc(Cl)cc2)cc1 [4-Cl-4′-biphenylol]	–	–	Exp. Log(RBA) [2, 5]: −2.18
Oc1ccc(C=Cc2ccc(O)cc2)cc1 [4,4′-dihroxystilbene]	–	–	Exp. Log(RBA) [2, 5]: −0.55
4-hydroxytamoxifen	–	–	Exp. Log(RBA) [2]: 2.24
CCCCCCCCCc1ccc(O)cc1 [4-nonylphenol]	–	–	Exp. Log(RBA) [2]: −1.53
Oc1ccc(-c2ccccc2)cc1 [p-phenylphenol]	–	–	Exp. Log(RBA) [2]: −3.04
CCC(C)(C)c1ccc(O)cc1 [4-tert-amylphenol]	–	–	Exp. Log(RBA) [2]: −3.26
O=C1C[C@@H](c2ccc(O)cc2)Oc2cc(O)cc(O)c21 [naringenin]	–	–	Exp. Log(RBA) [2]: −2.13
Oc1ccc(Cc2ccc(O)cc2)cc1 [bis-(4-hydroxyphenyl)methane]	–	–	Exp. Log(RBA) [2]: −3.02
Oc1ccc(-c2ccccc2)c(Cl)c1 [2-Cl-4-biphenylol]	–	–	Exp. Log(RBA) [2, 5]: −2.77
O=C(O)c1ccccc1C(c1ccc(O)cc1)c1ccc(O)cc1 [phenolphthalin]	–	–	Exp. Log(RBA) [2, 5]: −3.67
C[C@]12CC[C@@H]3c4ccccc4CC[C@H]3[C@@H]1CC[C@@H]2O [3-deoxyestradiol]	–	–	Exp. Log(RBA) [2, 5]: −0.3
C[C@H]1CCC[C@H](O)CCCCCc2cc(O)cc(O)c2C(=O)O1 [α-zearalanol]	–	–	Exp. Log(RBA) [2, 5]: 1.48
O=c1c(-c2ccc(O)cc2)coc2cc(O)ccc12 [daidzein]	–	–	Exp. Log(RBA) [2]: −1.65
C[C@H]1CCC[C@@H](O)CCCCCc2cc(O)cc(O)c2C(=O)O1 [β-zearalanol]	–	–	Exp. Log(RBA) [2, 5]: −0.19
CC/C(=C(/CC)c1ccc(OC)cc1)c1ccc(OC)cc1 [dietheylstilbestrol dimethyl ether]	–	–	Exp. Log(RBA) [2, 5]: −1.25
C/C=C(/C(=C/C)c1ccc(O)cc1)c1ccc(O)cc1 [dienestrol]	–	–	Exp. Log(RBA) [2]: 1.57
CC(Cc1ccc(O)c(O)c1)C(C)Cc1ccc(O)c(O)c1 (centres unmarked) [nordihydroguariareticacid]	–	–	Exp. Log(RBA) [2, 5]: −1.51
CCC(c1ccc2cc(O)ccc2c1)C(C)(C)C(=O)O (stereo not drawn) [α,α-dimethylbethyl allenolic acid]	–	–	Exp. Log(RBA) [2, 5]: −0.02
